The values below come from ChEMBL document CHEMBL4823263, “Discovery of 2-(3-(3-Carbamoylpiperidin-1-yl)phenoxy)acetic Acid Derivatives as Novel Small-Molecule Inhibitors of the β-Catenin/B-Cell Lymphoma 9 Protein-Protein Interaction” (J Med Chem, 2021).

The nature of data set [1]: Downregulation of HPRT in human MDA-MB-231 cells assessed as HPRT level at 3.3 uM incubated for […] by quantitative real-time PCR analysis relative to control. It counts as ADME, cell-based. Conditions: mda-mb-231, 3.3 µM.
Data set [2] concerns the target T1, beta-catenin-B-cell lymphoma 9 protein complex (Homo sapiens, UniProt P35222).
T1 sequence (P35222 whole entry): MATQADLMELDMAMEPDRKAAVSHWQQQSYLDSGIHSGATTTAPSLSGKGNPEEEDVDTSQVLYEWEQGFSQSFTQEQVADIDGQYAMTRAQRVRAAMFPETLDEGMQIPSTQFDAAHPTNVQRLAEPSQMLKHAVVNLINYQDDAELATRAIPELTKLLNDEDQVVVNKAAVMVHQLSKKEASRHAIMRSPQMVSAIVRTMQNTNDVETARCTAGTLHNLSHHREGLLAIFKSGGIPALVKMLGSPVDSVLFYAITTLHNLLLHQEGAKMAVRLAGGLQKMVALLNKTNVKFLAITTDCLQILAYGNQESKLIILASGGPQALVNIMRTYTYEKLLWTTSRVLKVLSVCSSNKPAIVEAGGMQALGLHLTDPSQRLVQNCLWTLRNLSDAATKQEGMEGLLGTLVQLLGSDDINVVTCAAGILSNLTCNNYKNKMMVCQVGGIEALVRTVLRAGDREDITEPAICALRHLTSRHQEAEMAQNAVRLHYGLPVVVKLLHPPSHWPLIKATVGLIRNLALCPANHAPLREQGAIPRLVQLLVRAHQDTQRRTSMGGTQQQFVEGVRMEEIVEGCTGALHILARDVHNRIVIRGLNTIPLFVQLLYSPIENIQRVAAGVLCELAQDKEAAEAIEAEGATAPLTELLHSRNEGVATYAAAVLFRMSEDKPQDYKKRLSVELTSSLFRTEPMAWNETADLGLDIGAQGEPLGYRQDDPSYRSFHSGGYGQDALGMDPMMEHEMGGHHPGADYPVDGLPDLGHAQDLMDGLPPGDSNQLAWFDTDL
T1 sequence (O00512 whole entry): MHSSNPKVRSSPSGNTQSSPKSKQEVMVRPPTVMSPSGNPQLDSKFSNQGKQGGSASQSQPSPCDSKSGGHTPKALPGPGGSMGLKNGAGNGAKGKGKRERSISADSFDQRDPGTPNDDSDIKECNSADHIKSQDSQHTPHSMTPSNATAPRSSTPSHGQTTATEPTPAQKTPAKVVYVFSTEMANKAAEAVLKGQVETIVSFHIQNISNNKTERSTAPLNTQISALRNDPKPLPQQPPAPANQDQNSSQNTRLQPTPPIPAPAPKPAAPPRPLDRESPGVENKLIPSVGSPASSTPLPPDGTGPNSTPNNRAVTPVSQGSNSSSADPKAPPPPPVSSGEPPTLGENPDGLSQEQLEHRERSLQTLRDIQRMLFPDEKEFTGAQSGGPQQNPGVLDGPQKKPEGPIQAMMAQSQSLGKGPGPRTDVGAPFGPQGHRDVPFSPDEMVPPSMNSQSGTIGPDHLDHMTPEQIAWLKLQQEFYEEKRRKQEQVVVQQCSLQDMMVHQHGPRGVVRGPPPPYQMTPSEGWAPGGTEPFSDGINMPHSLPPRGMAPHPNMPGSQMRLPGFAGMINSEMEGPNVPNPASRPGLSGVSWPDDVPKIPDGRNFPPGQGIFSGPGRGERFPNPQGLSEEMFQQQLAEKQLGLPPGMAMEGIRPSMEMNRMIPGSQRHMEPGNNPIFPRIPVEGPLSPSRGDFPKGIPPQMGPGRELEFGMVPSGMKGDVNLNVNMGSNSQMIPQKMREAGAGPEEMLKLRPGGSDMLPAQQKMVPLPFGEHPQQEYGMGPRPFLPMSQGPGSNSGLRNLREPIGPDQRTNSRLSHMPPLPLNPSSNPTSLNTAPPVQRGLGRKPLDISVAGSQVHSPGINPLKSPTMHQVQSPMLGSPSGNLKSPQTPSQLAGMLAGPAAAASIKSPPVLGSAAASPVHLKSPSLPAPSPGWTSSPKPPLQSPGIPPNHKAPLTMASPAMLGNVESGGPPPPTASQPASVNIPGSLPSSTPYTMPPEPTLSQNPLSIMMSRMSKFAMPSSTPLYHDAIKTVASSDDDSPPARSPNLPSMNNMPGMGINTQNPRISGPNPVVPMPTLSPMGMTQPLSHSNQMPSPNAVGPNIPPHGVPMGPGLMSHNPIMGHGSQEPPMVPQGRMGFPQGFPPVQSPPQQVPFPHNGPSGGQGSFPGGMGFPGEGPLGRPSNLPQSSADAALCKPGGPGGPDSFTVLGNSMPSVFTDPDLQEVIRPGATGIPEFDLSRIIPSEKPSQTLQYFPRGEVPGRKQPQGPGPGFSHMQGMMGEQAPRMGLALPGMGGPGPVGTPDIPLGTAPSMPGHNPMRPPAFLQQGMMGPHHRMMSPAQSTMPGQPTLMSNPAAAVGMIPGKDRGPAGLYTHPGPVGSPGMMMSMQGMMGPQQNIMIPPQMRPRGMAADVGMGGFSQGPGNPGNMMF
Put plainly: Inhibition of full length C-terminal 6-His-tagged beta-catenin (1 to 781 residues) (unknown origin) expressed in Escherichia coli BL21 (DE3)-N-terminal biotinylated human BCL9 (350 to 375 residues) protein-protein interaction incubated for 1 hr by Alphascreen assay. (In general: Alpha assays give light when donor and acceptor beads are brought close together.)

The target in data set [3] is Protein Wnt-3a (Mus musculus) (UniProt P27467). Nature of the data set: Inhibition of mouse wnt3a expressed in human MDA-MB-231 cells assessed as Axin2 level at 3.3 uM incubated for […] by quantitative real-time PCR analysis relative to control. Also on record: scale not given: the % may be the effect or the level left. The data set is classed as cell-based.
Data set [4] has the same target. Put plainly: Inhibition of mouse wnt3a expressed in human MDA-MB-231 cells assessed as LEF1 level at 3.3 uM incubated for […] by quantitative real-time PCR analysis relative to control. More on the design: scale not given: the % may be the effect or the level left. The data set is classed as cell-based. For orientation: Quantitative PCR measures a nucleic acid by following its amplification.

In the next data set the test system is HCT-116. Nature of the data set: Antiproliferative activity against human HCT116 cells incubated for 72 hrs by MTS assay. The data set is classed as functional, cell-based. To be noted: HCT-116, 72 h. In general terms: Formazan colour is commonly taken as a measure of viable cells.
In data set [5] the target is Protein Wnt-3a (Homo sapiens) (UniProt P56704). Nature of the data set: Inhibition of Wnt3a in human SW480 cells assessed as LEF1 level at 30 uM incubated for […] by quantitative real-time PCR analysis relative to control. The data set is classed as cell-based. More on the design: scale not given: the % may be the effect or the level left.
Data set [6] deals with Protein Wnt-3a (Mus musculus) (UniProt P27467). Put plainly: Inhibition of mouse wnt3a expressed in human MDA-MB-231 cells assessed as LEF1 level at 10 uM incubated for […] by quantitative real-time PCR analysis relative to control. It counts as cell-based. More on the design: scale not given: the % may be the effect or the level left.
Data set [7] concerns the target Protein Wnt-3a (Homo sapiens) (UniProt P56704). Nature of the data set: Inhibition of Wnt3a in human SW480 cells assessed as Axin2 level at 30 uM incubated for […] by quantitative real-time PCR analysis relative to control. It counts as cell-based. Also on record: scale not given: the % may be the effect or the level left.
Data set [8] has the same target. Put plainly: Inhibition of Wnt3a in human SW480 cells assessed as Axin2 level at 10 uM incubated for […] by quantitative real-time PCR analysis relative to control. The data set is classed as cell-based. Also on record: scale not given: the % may be the effect or the level left.

Sequence of Protein Wnt-3a (Mus musculus) (P27467 whole entry): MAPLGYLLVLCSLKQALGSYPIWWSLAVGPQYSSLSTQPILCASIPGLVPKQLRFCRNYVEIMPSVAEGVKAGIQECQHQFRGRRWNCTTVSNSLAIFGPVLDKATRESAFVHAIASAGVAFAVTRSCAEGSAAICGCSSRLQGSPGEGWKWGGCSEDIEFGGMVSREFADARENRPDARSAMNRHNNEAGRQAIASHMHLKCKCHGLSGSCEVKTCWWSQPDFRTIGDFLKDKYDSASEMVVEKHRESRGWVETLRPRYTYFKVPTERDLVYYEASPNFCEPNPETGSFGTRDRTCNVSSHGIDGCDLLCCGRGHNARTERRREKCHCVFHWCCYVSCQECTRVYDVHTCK
Sequence of Protein Wnt-3a (Homo sapiens) (P56704 whole entry): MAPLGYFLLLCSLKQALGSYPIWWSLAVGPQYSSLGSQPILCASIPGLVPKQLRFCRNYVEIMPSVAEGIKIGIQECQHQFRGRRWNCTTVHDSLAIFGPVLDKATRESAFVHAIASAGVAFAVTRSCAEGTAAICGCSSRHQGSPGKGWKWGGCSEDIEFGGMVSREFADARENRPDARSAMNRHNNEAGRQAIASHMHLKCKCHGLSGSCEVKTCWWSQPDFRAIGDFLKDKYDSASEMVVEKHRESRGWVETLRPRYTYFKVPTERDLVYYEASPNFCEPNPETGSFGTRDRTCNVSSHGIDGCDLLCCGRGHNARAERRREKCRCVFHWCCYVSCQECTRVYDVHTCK

For `CC(C)(Oc1cccc(N2CCC[C@H](C(=O)N(Cc3ccc(-c4cccs4)cc3)C3CC3)C2)c1)C(=O)NS(=O)(=O)c1ccc(C#N)cc1`, the Activity is 102% in data set [1]; 69% in data set [3]; 87% in data set [4]; 76% in [5]; 81% in data set [6]; 42% in data set [7]. In data set [8], the Activity worked out at 72%. Moreover, the IC50 (usually the point on the concentration scale where inhibition reaches its midpoint) in data set [2] came out at 4.4 µM; in the data set with HCT-116 it was 29.6 µM.
